ChEMBL document CHEMBL2069291, “Orally available pyridinylpyrimidine derivatives as novel RANKL-induced osteoclastogenesis inhibitors” (Bioorg Med Chem Lett, 2012)

Key:
[1] = AUC (0 to infinity) in ovariectomized Wistar rat at 3 mg/kg, po administered as single dose; type: ADME, organism-based; set-up: dose 3 mg/kg, route oral, time infinity; settings: female, plasma
[2] = Cmax in ovariectomized Wistar rat at 3 mg/kg, po administered as single dose; type: ADME, organism-based; set-up: dose 3 mg/kg, route oral; settings: female, in vivo
[3] = Solubility in phosphate buffer at pH 6.8; type: physicochemical
[4] = AUC (0 to infinity) in female C57BL/6 mouse at 3 mg/kg, po administered as single dose; type: ADME, organism-based; set-up: dose 3 mg/kg, route oral, time infinity; settings: plasma
[5] = Permeability of the compound by PAMPA assay; type: ADME; settings: read-out: permeability
[6] = Cmax in female C57BL/6 mouse at 3 mg/kg, po administered as single dose; type: ADME, organism-based; set-up: dose 3 mg/kg, route oral; settings: in vivo
[7] = Cmax in female C57BL/6 mouse at 1 mg/kg, po administered as single dose; settings: in vivo
[8] = AUC (0 to infinity) in female C57BL/6 mouse at 1 mg/kg, po administered as single dose; settings: plasma

| SMILES | AUC(0-inf) [1] | Cmax [2] | solubility [3] | AUC(0-inf) [4] | Papp [5] | Cmax [6] | Cmax [7] | AUC(0-inf) [8] |
| --- | --- | --- | --- | --- | --- | --- | --- | --- |
| COc1cnc(-c2ccccn2)nc1NCc1ccccc1F | 151 ng·h/mL | 49 ng/mL | > 25 µg/mL | 240 ng·h/mL | > 30 ×10⁻⁶ cm/s | 130 ng/mL | – | – |
| COc1cnc(-c2ccccn2)nc1NCc1c(F)cc(F)cc1F | 542 ng·h/mL | 135 ng/mL | > 25 µg/mL | 188 ng·h/mL | > 30 ×10⁻⁶ cm/s | 98 ng/mL | – | – |
| COc1cnc(-c2ccccn2)nc1NCc1ccc(F)cc1C(F)(F)F | 943 ng·h/mL | 156 ng/mL | > 25 µg/mL | 1020 ng·h/mL | > 30 ×10⁻⁶ cm/s | 599 ng/mL | – | – |
| COc1cnc(-c2ccccn2)nc1N1CCCC1 | – | – | – | – | – | – | 7 ng/mL | 15 ng·h/mL |
